Test results reported in US20230346709A1, “TABLET CONTAINING VALSARTAN AND SACUBITRIL” (ALFRED E. TIEFENBACHER (GMBH & CO. KG), priority 2017, published 2023).

Assay: Storage stability of the tablets, solid form of the active ingredients by powder XRD
Format: physicochemical
Conditions: after storage in Alu-Alu blister, three months at 40° C./75% RH
Description: The XRD measurements were performed using X-ray source with Cu K-alpha radiation, Empyrean system (or equivalent), PIXcel detector, divergence slit 0.25° fixed, anti-scattering slit 0.5°, soller slits 2×0.02 radians, Nickel filter to suppress back ground and Cu K-beta components, current 40 mA, voltage 45 kV, 2° - 40 ° 2θ, spinning 30 RPM, step size 0.013° with total measurement time 1 Hr at room temperature. 1. Grind about two tablets to fine powder using Agate mortar and pestle gently. Prepare the sample (approx. 350 mg) using PANalytical sample preparation kit by ‘Back loading technique’. The sample surface should be smooth and in parallel to sample holder surface. Clean the outer edges of the holder with tissue paper to avoid sample contaminations. 2. Place the prepared sample holder carefully on the sample stage of the XRD instrument and analyze as per the above XRD method conditions at room temperature.

In the case of `CCCCC(=O)N(Cc1ccc(-c2ccccc2-c2nnn[n-]2)cc1)[C@H](C(=O)[O-])C(C)C.CCOC(=O)[C@H](C)C[C@@H](Cc1ccc(-c2ccccc2)cc1)NC(=O)CCC(=O)[O-].O.[Na+].[Na+].[Na+]` [LCZ696], the “change of solid form of the active ingredient in the tablets, powder XRD” value (“change” below) is reported as “no crystallization”.

With `CCCCC(=O)N(Cc1ccc(-c2ccccc2-c2nnn[nH]2)cc1)[C@H](C(=O)O)C(C)C` [valsartan disodium] the “change” value was “no crystallization”.

With `CCOC(=O)[C@H](C)C[C@@H](Cc1ccc(-c2ccccc2)cc1)NC(=O)CCC(=O)O` [sacubitril monosodium] the “change” value was “no polymorph conversion or amorphization”.
